Literature values as cited in US20260315441A1, “FORMULATIONS OF PENICILLIN AND METHODS FOR STABILIZING PENICILLIN” (VETERINARY PHARMACY CORPORATION, priority 2023, published 2026).
Like-named read-outs stand apart in the source and are kept apart here.

Row | pH of highest stability (aqueous solution) | degradation of penicillin G (at 5° C.) | degradation of penicillin G (at 37° C.) | minimum degradation pH point (aqueous solution) | stability outside of the pH range of 5-8 (pH outside 5-8) | Compound
1 | 5-8 pH | 1.92 %/hour | 3.29 %/hour | – | – | CC1(C)S[C@@H]2[C@H](NC(=O)Cc3ccccc3)C(=O)N2[C@H]1C(=O)O [Penicillin G, benzylpenicillin]
2 | – | – | – | 6.5 pH | very unstable | CC1(C)S[C@@H]2[C@H](NC(=O)Cc3ccccc3)C(=O)N2[C@H]1C(=O)O [Penicillin]
